Data: patent US8217013B2, “Polyene diester antibiotics” (priority 2007, dated 2012)

Columns and labels:
Assay in all cases: Test of antibacterial activity in vitro (bacteria-inhibition zone)
Type in all cases: cell-based
Candida mycoderma = test system: Candida mycoderma
From the text: (§1) Test of Antibacterial Activity In Vitro
(§2) Experiment drugs: the polyene diester compounds prepared by examples 1-12
(§3) Control drugs: amphotericin B (standard product) • mycostatin (standard product) • natamycin (standard product)
2.3 Preparation of Candida mycoderrna suspension: the method is as same as preparation of Saccharomyces cerevisiae suspension
(§4) Taking appropriate amount of the above mentioned amphotericin B, mycostatin, natamycin and the polyene diester compounds prepared by examples 1-8 and 10-12, dissolving in a little dimethyl sulfoxide respectively, using pH7 phosphate buffer to dilute into solution which is equivalent to contain amphotericin B, mycostatin, natamycin 280 Units per milliliter, taking 1 ml and using pH7 phosphate buffer to quantitatively dilute into solution which is equivalent to contain amphotericin B 1.4 μg/ml and 2.8 μg/ml, and is equivalent to contain 5.6 μg/ml of mycostatin and natamycin.
(§5) In addition, preparing the solution according to the same method, adding 40% defibered sheep serum, using pH7 phosphate buffer to quantitatively dilute into unit solution which is equivalent to contain amphotericin B 1.4 μg/ml and 2.8 μg/ml, and is equivalent to contain 5.6 μg/ml of mycostatin and natamycin. Testing according to PHARMACOPOEIA OF THE PEOPLES REPUBLIC OF CHINA, second part, 2005 edition, appendix XIA The Antibiotics Microorganism Test.
(§6) Medium: Improved Martin Agar Medium, PHARMACOPOEIA OF THE PEOPLES REPUBLIC OF CHINA, second part, 2005 edition, appendix p 84.
(§7) Test method: Double-plate counting method; […] bacteria bed 15 ml to replace the double layers, culture temperature: 37° C., time: 24 h; strain concentration: 1%
(§8) Medium: Modified Martin Broth Medium

Saccharomyces cerevisiae = test system: Saccharomyces cerevisiae
From the text: as §1, §2, §3
2.2 Preparation of Saccharomyces cerevisiae suspension: PHARMACOPOEIA OF THE PEOPLES REPUBLIC OF CHINA, second part, 2005 edition, appendix p 80, p 83.
as §4, §5, §6, §7, §8

Candida albicans = test system: Candida albicans
From the text: as §1, §2, §3
2.1 Preparation of Candida albicans suspension: PHARMACOPOEIA OF THE PEOPLES REPUBLIC OF CHINA, second part, 2005 edition, appendix p 81-84.
as §4, §5, §6
Test method: Double-plate counting method; […] bacteria bed 15 ml to replace the double layers, culture temperature: 37° C., time: 24 h; strain concentration: 1% […]

[1] = 5.6 μg/ml after conversion, no serum
[2] = 5.6 μg/ml after conversion, serum added (40% defibered sheep serum)
[3] = 2.8 μg/ml after conversion, no serum
[4] = 2.8 μg/ml after conversion, serum added (40% defibered sheep serum)

Row | Molecule | diameter of the bacteria-inhibition zone, Candida mycoderma 0 h (Candida mycoderma; [1]) | diameter of the bacteria-inhibition zone, Candida mycoderma 0 h (Candida mycoderma; [2]) | diameter of the bacteria-inhibition zone, Candida mycoderma 6 h (Candida mycoderma; [1]) | diameter of the bacteria-inhibition zone, Candida mycoderma 6 h (Candida mycoderma; [2]) | diameter of the bacteria-inhibition zone, Candida mycoderma 24 h (Candida mycoderma; [1]) | diameter of the bacteria-inhibition zone, Candida mycoderma 48 h (Candida mycoderma; [1]) | diameter of the bacteria-inhibition zone, Saccharomyces cerevisiae 0 h (Saccharomyces cerevisiae; [1]) | diameter of the bacteria-inhibition zone, Saccharomyces cerevisiae 0 h (Saccharomyces cerevisiae; [2]) | diameter of the bacteria-inhibition zone, Saccharomyces cerevisiae 6 h (Saccharomyces cerevisiae; [1]) | diameter of the bacteria-inhibition zone, Saccharomyces cerevisiae 6 h (Saccharomyces cerevisiae; [2]) | diameter of the bacteria-inhibition zone, Saccharomyces cerevisiae 24 h (Saccharomyces cerevisiae; [1]) | diameter of the bacteria-inhibition zone, Saccharomyces cerevisiae 48 h (Saccharomyces cerevisiae; [1]) | diameter of the bacteria-inhibition zone, Candida albicans 0 h (Candida albicans; [1]) | diameter of the bacteria-inhibition zone, Candida albicans 0 h (Candida albicans; [2]) | diameter of the bacteria-inhibition zone, Candida albicans 6 h (Candida albicans; [1]) | diameter of the bacteria-inhibition zone, Candida albicans 6 h (Candida albicans; [2]) | diameter of the bacteria-inhibition zone, Candida albicans 24 h (Candida albicans; [1]) | diameter of the bacteria-inhibition zone, Candida albicans 24 h (Candida albicans; [2]) | diameter of the bacteria-inhibition zone, Candida albicans 48 h (Candida albicans; [1]) | diameter of the bacteria-inhibition zone, Candida albicans 48 h (Candida albicans; [2]) | further results
1 | CCOC(=O)OC(C)OC(=O)[C@H]1[C@@H]2C[C@@H](O[C@@H]3OC(C)[C@@H](O)[C@@H](N)[C@H]3O)/C=C/C=C/C=C/C=C/C[C@@H](C)OC(=O)/C=C/[C@H]3O[C@@H]3C[C@H](O)C[C@](O)(C[C@@H]1O)O2 (some centres unmarked) [natamycin ethoxycarbonyloxyethyl ester] | + (7-9 mm: +) | + (7-9 mm: +) | + (7-9 mm: +) | ++ (9-12 mm: ++) | + (7-9 mm: +) | + (7-9 mm: +) | + (7-9 mm: +) | + (7-9 mm: +) | + (7-9 mm: +) | ++ (9-12 mm: ++) | + (7-9 mm: +) | + (7-9 mm: +) | + (7-9 mm: +) | + (7-9 mm: +) | + (7-9 mm: +) | ++ (9-12 mm: ++) | + (7-9 mm: +) | ++ (9-12 mm: ++) | + (7-9 mm: +) | ++ (9-12 mm: ++) | 
2 | Natamycin methyl pivalate | ++ (9-12 mm: ++) | ++ (9-12 mm: ++) | ++ (9-12 mm: ++) |  | ++ (9-12 mm: ++) | ++ (9-12 mm: ++) | + (7-9 mm: +) | + (7-9 mm: +) | + (7-9 mm: +) | ++ (9-12 mm: ++) | + (7-9 mm: +) | + (7-9 mm: +) | + (7-9 mm: +) | + (7-9 mm: +) | + (7-9 mm: +) | ++ (9-12 mm: ++) | + (7-9 mm: +) | ++ (9-12 mm: ++) | + (7-9 mm: +) | ++ (9-12 mm: ++) | 
3 | amphotericin B-1, 3-2H-3-oxo-1-isobenzofuran ester |  |  |  |  |  |  |  |  |  |  |  |  |  |  |  |  |  |  |  |  | diameter of the bacteria-inhibition zone, Candida mycoderma 0 h (Candida mycoderma; [3]): ++ (9-12 mm: ++); diameter of the bacteria-inhibition zone, Candida mycoderma 0 h (Candida mycoderma; [4]): ++ (9-12 mm: ++); diameter of the bacteria-inhibition zone, Candida mycoderma 6 h (Candida mycoderma; [3]): ++ (9-12 mm: ++); diameter of the bacteria-inhibition zone, Candida mycoderma 24 h (Candida mycoderma; [3]): ++ (9-12 mm: ++); diameter of the bacteria-inhibition zone, Candida mycoderma 48 h (Candida mycoderma; [3]): ++ (9-12 mm: ++); diameter of the bacteria-inhibition zone, Saccharomyces cerevisiae 0 h (Saccharomyces cerevisiae; [3]): ++ (9-12 mm: ++); diameter of the bacteria-inhibition zone, Saccharomyces cerevisiae 0 h (Saccharomyces cerevisiae; [4]): ++ (9-12 mm: ++); diameter of the bacteria-inhibition zone, Saccharomyces cerevisiae 6 h (Saccharomyces cerevisiae; [3]): ++ (9-12 mm: ++); diameter of the bacteria-inhibition zone, Saccharomyces cerevisiae 24 h (Saccharomyces cerevisiae; [3]): ++ (9-12 mm: ++); diameter of the bacteria-inhibition zone, Saccharomyces cerevisiae 48 h (Saccharomyces cerevisiae; [3]): ++ (9-12 mm: ++); diameter of the bacteria-inhibition zone, Candida albicans 0 h (Candida albicans; [3]): + (7-9 mm: +); diameter of the bacteria-inhibition zone, Candida albicans 0 h (Candida albicans; [4]): + (7-9 mm: +); diameter of the bacteria-inhibition zone, Candida albicans 6 h (Candida albicans; [3]): + (7-9 mm: +); diameter of the bacteria-inhibition zone, Candida albicans 6 h (Candida albicans; [4]): ++ (9-12 mm: ++); diameter of the bacteria-inhibition zone, Candida albicans 24 h (Candida albicans; [3]): + (7-9 mm: +); diameter of the bacteria-inhibition zone, Candida albicans 48 h (Candida albicans; [3]): + (7-9 mm: +)
4 | mycostatin ethyl acetate | ++ (9-12 mm: ++) | ++ (9-12 mm: ++) | ++ (9-12 mm: ++) |  | ++ (9-12 mm: ++) | ++ (9-12 mm: ++) | ++ (9-12 mm: ++) | ++ (9-12 mm: ++) | ++ (9-12 mm: ++) |  | ++ (9-12 mm: ++) | ++ (9-12 mm: ++) | + (7-9 mm: +) | + (7-9 mm: +) | + (7-9 mm: +) | + (7-9 mm: +) | + (7-9 mm: +) | + (7-9 mm: +) | + (7-9 mm: +) | + (7-9 mm: +) | 
5 | mycostatin methyl pivalate |  | + (7-9 mm: +) |  | ++ (9-12 mm: ++) |  |  | ++ (9-12 mm: ++) | + (7-9 mm: +) | ++ (9-12 mm: ++) | ++ (9-12 mm: ++) | ++ (9-12 mm: ++) | ++ (9-12 mm: ++) | + (7-9 mm: +) | + (7-9 mm: +) | + (7-9 mm: +) | + (7-9 mm: +) | + (7-9 mm: +) | + (7-9 mm: +) | + (7-9 mm: +) | + (7-9 mm: +) | 
